Where “and” joins values, the source holds several entries; their conditions need not be identical. Identical values can stand only once. Ends that are not written are not given here. Peptide text beside a SMILES is read from it.
Key:
[1] = tested on: uninfected human erythrocytes; format: cell-based
Protocol: The haemolytic effect of analogs 5 and 6 was determined in uninfected erythrocytes. Cells were maintained in the same culture conditions in the presence of 10^−8 mol L^−1 peptides, for 24 h. Erythrocytes were centrifuged at 900g/8 min and free haemoglobin in the supernatant was assessed by spectrophotometer at 550 nm. Untreated cells were used as negative control to discount non-specific haemolysis. The haemolytic activity was expressed as percentage of the control. This positive control (100 % haemolysis) was prepared by treating the erythrocytes with distilled water.
The effects of the Ang II, peptides 5 and 6 in the erythrocyte human cells to define the haemolysis were seeded in a 96-well plate in the absence (control) or presence of 10^−8 mol L^−1 of the analogues, as already described.
Fig. 5 Haemolytic assay of human red blood cells were treated with distilled water; uninfected erythrocytes were kept in the same conditions used in the invasion assay with a control and each peptides tested (10^−8 mol L^−1), at 37 °C for 24 h. After incubation, the supernatant was collected, clarified at 900 g/8 min and the haemoglobin content was detected in a spectrophotometer at […]. Triple asterisk statistically significant compared with distilled water value p < 0.05.

[2] = tested on: non-infected human erythrocytes; format: cell-based
Protocol: The MHC of the peptides were assessed through the measurement of haemoglobin released by non-infected human erythrocytes in the presence of increasing concentrations of the compounds in the same culture conditions of the invasion assay. As described by Jin-Jiang, MHC is the highest peptide concentration that causes no detectable release of haemoglobin.

[3] = tested on: Plasmodium falciparum W2 strain, erythrocytic cycle; settings: read-out: IC50, suppression of erythrocytic invasion (rings formed) by P. falciparum; seven concentrations 10^−4 to 10^−14 mol L^−1, 24 h; non-linear regression, GraphPad Prism; n = 2
From the text: The erythrocytic cycle of Plasmodiumfalciparum was maintained in vitro by culturing W2 strains in 1640 medium, supplemented with A-type human blood and serum, as described in Saraiva et al. [6].
Sorbitol solution (5 %) was used to synchronize parasite cultures into the ring stage, according to Lambros and Vanderberg [18]. The resistant ring-forms are subsequently maintained in culture as described above. Erythrocytes infected by parasite mature forms at 2–3 % parasitaemia and 5 % haematocrit were kept in the presence or absence of 10^−8 mol L^−1 synthetic peptides, for 24 h. Invasion is assessed by the appearance of new ring forms. The percentage of invasion was determined by optical microscopy (1000× magnification). It represents the total number of cells infected by rings in 100 erythrocytes in at least ten random microscopic fields. The invasion assay was carried out using two different cell suspension and generated equivalent results
The IC50 values were calculated by using GraphPad Prism Software version 5.00 for Windows (GraphPad, San Diego, California, USA). Parameters: Nonlinear Regression; log (inhibitor) vs. response equation was chosen at least square (ordinary) fit method was applied. […]

[4] = not given; remark: listed apart in the source
[5] = not given; remark: listed apart in the source
[6] = not given; remark: listed apart in the source
[7] = not given; remark: listed apart in the source
[8] = tested on: P. gallinaceum sporozoite; settings: cited from earlier work; for biological (antiplasmodial) activity on P. gallinaceum sporozoites: Ala-replacement / deletion analogues and short peptides; for antiplasmodial activity against P. gallinaceum sporozoite: lactam bridged Ang II analogues
From the text: Chamlian et al. studied some lactam bridged Ang II analogues, which presented Asp and Lys insertion in order to restrict the peptide. […] They replaced each amino acid by Ala or deleted the residues of the native Ang II molecule. The biological activities of the analogues […]and […]on the P. gallinaceum sporozoites were equipotent to native Ang II [4], 75 and 79 % of activity, respectively.

[9] = tested on: P. falciparum red blood cells; settings: cited from earlier work
From the text: Saraiva et al. described studies that aimed to identify the molecular mechanisms induced by Ang II, which are involved in the modulation of P. falciparum erythrocytic cycle. […] Torres et al. studied the influence of restrict peptides in P. falciparum red blood cells.

[10] = tested on: Plasmodium gallinaceum mature sporozoites; experiment: Effect of the peptides on salivary gland-derived Plasmodium gallinaceum sporozoites (membrane permeability, propidium iodide fluorescence); format: cell-based; settings: 60 μmol L^−1 peptide in PBS, 37 °C, 1 h, fluorescence microscopy, mean, n = 9
Protocol: Nine-thousand P. gallinaceum mature sporozoites were recovered from the salivary glands of Ae. aegypti and incubated in 50 μL of the PBS solution, with 40 μmol L^−1 digitonin (positive control), 60 μmol L^−1 peptides or negative controls, at 37 °C for 1 h. Cell membrane integrity was then monitored using a Carl Zeiss inverted fluorescence microscope (model Observer Axio Vision A.1) coupled to an image capture Zeiss AxioCam HR digital camera (1300 × 1030 pixels resolution and 8-bit quantization) after addition of 1 μL of the propidium iodide aqueous solution (200 μmol L^−1) in 5 μL of total solution volume. Images were obtained using a 40× objective lens and a green filter effect in red. The spectral range was set with the excitation at 538 nm within the visible spectrum in order to produce orange-red fluorescence centered at 619 nm, which was processed using the Axio 4.7 software.
The effect of the peptides on sporozoites was determined in vitro by fluorescence microscopy after one hour of incubation of the parasites with each peptide in the presence of propidium iodide (see Additional file 1). The results are reported as the per cent of fluorescent sporozoites. The analyses were carried out in triplicate using three different mosquito batches and a total of nine experiments were performed (n = 9). The effects of the peptides on P. gallinaceum sporozoites in vitro assay presented 64–94 % activity.
Fig. 2 Effects of peptides on membrane permeability expressed as the per cent of fluorescent mature sporozoites (mean ± standard deviation, n = 9). […] Positive control group (+): digitonin/PBS; negative control group (−): PBS.
Nine-thousand P. gallinaceum mature sporozoites were recovered from the salivary glands of Ae. aegypti and incubated in 50 µL of the PBS solution, with 40 μmol L^–1 digitonin (positive control), 60 μmol L^–1 peptides or negative controls, at 37 °C for one hour. Cell membrane integrity was then monitored using a Carl Zeiss inverted fluorescence microscope (model Observer Axio Vision A.1) coupled to an image capture Zeiss AxioCam HR digital camera (1,300 x 1,030 pixels resolution and 8-bit quantization) after addition of 1 µL of the propidium iodide aqueous solution (200 µmol L^–1) in 5 μL of total solution volume. Images were obtained using a 40X objective lens and a green filter effect in red. The spectral range was set with the excitation at 538 nm within the visible spectrum in order to produce orange-red fluorescence centered at 619 nm, which was processed using the Axio 4.7 software.

Compound: CC[C@H](C)[C@H](NC(=O)[C@H](Cc1ccc(O)cc1)NC(=O)[C@@H](NC(=O)[C@H](CCCNC(=N)N)NC(=O)[C@@H](N)CC(=O)O)C(C)C)C(=O)N[C@@H](Cc1cnc[nH]1)C(=O)N1CCC[C@H]1C(=O)N[C@@H](Cc1ccccc1)C(=O)O [Ang II, angiotensin II]
- haemolytic activity (% of distilled water control) [1]: did not present hemolytic effects
- MHC [2]: 10^−5 M

Compound: N[C@@H](Cc1ccc(O)cc1)C(=O)N[C@@H](Cc1c[nH]cn1)C(=O)N1CCC[C@H]1C(=O)N[C@@H](Cc1ccccc1)C(=O)O [Peptide 5, des-Asp^1,Arg^2,Val^3,Ile^5-AII] (H-YHPF-OH)
- MHC [2]: 10^−5 M
- IC50 [3]: 890 pM
- secondary conformation β-turn: 25.7%
- secondary conformation α-helix [4]: 9.7% (2×) and 9.6%
- secondary conformation parallel [5]: 12.1% and 13.4%
- secondary conformation random coil [6]: 40.6% and 44.3% and 40.4%
- secondary conformation antiparallel [7]: 12% and 13.9%

Compound: CC[C@H](C)[C@H](NC(=O)[C@@H](N)C(C)C)C(=O)N1CCC[C@H]1C(=O)N[C@@H](Cc1ccccc1)C(=O)O [Peptide 6, des-Asp^1,Arg^2,Tyr^4,His^6-AII] (H-VIPF-OH)
- MHC [2]: 10^−6 M
- IC50 [3]: 620 pM
- secondary conformation β-turn: 21.7%
- secondary conformation α-helix [4]: 9.6% and 9.7% (2×)
- secondary conformation parallel [5]: 13%
- secondary conformation random coil [6]: 40.4%

Compound: Arg-Val-Tyr-Ile-His-Pro-Phe [deletion analogue of Ang II, Ferreira et al]
- biological (antiplasmodial) activity on P. gallinaceum sporozoites [8]: about 50%

Compound: Asp-Arg-Val-Tyr-Ile-His-Pro [deletion analogue of Ang II, Ferreira et al]
- biological (antiplasmodial) activity on P. gallinaceum sporozoites [8]: about 50%

Compound: CRDCVYIHPF (cysteine pairing not given here) [restrict peptide of Torres et al]
- reduction of the parasitaemia by restrict peptides [9]: active in two different parasite species

Compound: DRVYAHPF [Ala-replacement Ang II analogue from earlier work]
- biological (antiplasmodial) activity on P. gallinaceum sporozoites [8]: 75%

Compound: DRVYDIHKPF (also: sidechain bridge or staple (positions not given here)) [VC-26, lactam bridged Ang II analogue of Chamlian et al]
- antiplasmodial activity against P. gallinaceum sporozoite [8]: 73%

Compound: DRVYHIPF [Peptide 1, [Ile^6,His^5]-AII]
- per cent of fluorescent mature sporozoites (Spz Fluorescence, antiplasmodial activity) [10]: 94%

Compound: DRVYIAPF [Ala-replacement Ang II analogue from earlier work]
- biological (antiplasmodial) activity on P. gallinaceum sporozoites [8]: 79%

Compound: DRVYIDHKPF (also: sidechain bridge or staple (positions not given here)) [VC-12, lactam bridged Ang II analogue of Chamlian et al]
- antiplasmodial activity against P. gallinaceum sporozoite [8]: 87%

Compound: DRVYPF [Peptide 2, des-Ile^5,His^6-AII]
- per cent of fluorescent mature sporozoites (Spz Fluorescence, antiplasmodial activity) [10]: 64%

Compound: Ile-His-Pro-Phe [short peptide, Ferreira et al]
- biological (antiplasmodial) activity on P. gallinaceum sporozoites [8]: about 80%

Compound: RYHIPF [Peptide 4, [Ile^4,His^3]-des-Asp^1,Val^3-AII]
- per cent of fluorescent mature sporozoites (Spz Fluorescence, antiplasmodial activity) [10]: 77%

Compound: Val-Tyr-Ile-His-Pro [short peptide, Ferreira et al]
- biological (antiplasmodial) activity on P. gallinaceum sporozoites [8]: about 80%

Compound: Val-Tyr-Ile-His-Pro-Phe (VYIHPF; printed: Val-Tyr-Ile-His-Pro-Phe) [short peptide, Ferreira et al]
- biological (antiplasmodial) activity on P. gallinaceum sporozoites [8]: about 80%

Compound: [2-Nal^3]- des-Asp^1,Arg^2,Tyr^4,His^6-AII [Peptide 9]
- per cent of fluorescent mature sporozoites (Spz Fluorescence, antiplasmodial activity) [10]: 70%

Compound: [2-Nal^4]- des-Asp^1,Arg^2,Tyr^4,His^6-AII [Peptide 10]
- per cent of fluorescent mature sporozoites (Spz Fluorescence, antiplasmodial activity) [10]: 73%

— article PMC4634797, “New linear antiplasmodial peptides related to angiotensin II” (Malaria Journal, 2015)
